According to publication PMC7079008, “Compactness of Protein Folds Alters Disulfide‐Bond Reducibility by Three Orders of Magnitude: A Comprehensive Kinetic Case Study on the Reduction of Differently Sized Tryptophan Cage Model Proteins” (Chembiochem, 2019):
Where a SMILES comes first, the peptide text is derived from it. Bridges are numbered along the chain shown (N, C = ends).

Columns and labels:
[1] = SS bond reduction by TCEP monitored by 1H NMR; format: physicochemical; conditions: 1.7 mM protein, twofold excess of TCEP, 15 °C, pH 7; for TCEP: Elapsed time to steady state / TCEP: k1 / TCEP: t1/2 of reduction: 1H NMR; for TCEP: Conversion rate: 1H NMR Trp Hε1 integrals; for TCEP: k1: parameter estimation; for TCEP: t1/2 of reduction: calculated from k1 (Eq. 12)
Source text: The SS bond reduction by TCEP is a bimolecular nucleophilic substitution (SN2) reaction.37 Thus, both the concentration of the oxidized form of the protein [_SS] and that of the RA contribute to the rate of the reduction. In an ideal case, we should consider only nucleophilic attack of the RA (k 1), but, as we explained previously, in practice, we also have to take into account back oxidation (k 2), which takes place simultaneously, and, in some cases, depending on the size and shape of the protein, precipitation (k 3; Figure 5). The mechanism of reduction, therefore, can be described by Equations (2), (3), (4):(2) SS+RAred→k12SH+RAox (3) 2SH+O2→k2SS (4) 2SH→k3SSprecipitated
By fitting this model to the concentration–time functions determined by means of NMR spectroscopy, k 1, k 2, and k 3 can be determined, and half‐lives can be calculated. We focused on the determination of the reduction rate constants k 1; therefore, sampling was more frequent in the reduction phase (stage I; Figure 5 B). Based on parameter estimation (see the Experimental Section), k 2 and k 3 are very often either negligibly small, or, due to a lack of sufficient data, cannot be confidently estimated. Obtaining key kinetic parameters allowed us to describe and compare the reduction kinetics of the SS‐containing miniproteins under various experimental conditions. Some protocols reported in the literature apply extreme conditions, such as high temperature (e.g., 50–80 °C), to obtain short reduction times; this is clearly unsuitable for maintaining the integrity of the protein, or >20‐fold molar excess of reagent. By performing the reduction of E19_SS (0.8 mM) under such conditions (60 °C with 18‐fold TCEP excess), the reaction seemed almost instantaneous (t 1/2<5 min), but the sample became opalescent and side reactions (e.g., precipitation) were instantly detected. Similarly to most globular proteins, the conformational ensemble of E19_2SH at 60 °C is distinctly different from that of 15 °C; thus presenting many more unfolded states. The folded fraction of E19_2SH is 64 % at 15 °C, whereas it is 41 % at 60 °C, according to FUV‐ECD analysis. Instead of intramolecular reoxidation, undesirable intermolecular reoxidation might occur between particles. […] In principle, the reduction rate can be enhanced at lower T by increasing the TCEP molar ratio (15–20‐fold molar excess); however, this also triggers obscure unwanted processes (Figure S5). Experiments were repeated at different temperatures (15, 25, and 37 °C) with 0.8 mM protein and 18‐fold excess of TCEP (Table 2 and Figure S6). The Arrhenius equation allows the activation energy (E a) of the redox reaction to be derived, resulting in a value of about 44.3 kJ mol^−1. For comparison, the activation energy of thiol–disulfide exchange between methylthiolate and oxidized DTT was calculated to be 62 kJ mol^−1.76 Both FUV‐ECD and NMR spectroscopy derived structural information support the high conformational similarity between E19_SS and E19_2SH; therefore, E a is likely to be used for the redox reaction, rather than for the conformational switch between the two conformational states (Table 1). […] Additional experiments were performed to investigate the effect of the protein/RA ratio as a practical perspective (Figure S7). The above‐described NMR spectroscopy methodology provides high‐resolution information about the reduction mechanism, relative to that of the more rapid NUV‐ECD approach, and thus, details of the reduction of all four −SS− protein models were obtained through NMR spectroscopy.
Monitoring reduction kinetics: Peptide samples were prepared between 0.8 and 1.8 mM in 50 mM NaH2PO4–Na2HPO4 buffer (600 μL, pH 6.95), with 10 % D2O. A 0.1 M solution of NaOH was used to set the pH to 7. […]

[2] = Degree of fold by FUV-ECD (CCA+ ensemble deconvolution); format: physicochemical; conditions: for Degree of the fold by FUV-ECD: T=15 °C, c(protein)=20–30 μM, pH≈7, joint CCA+ deconvolution of 204 T-dependent FUV-ECD spectra; for difference in folded fraction between SS variant and parent: at 4 °C, FUV-ECD ensemble deconvolution
Source text: Circular dichroism (CD) spectroscopy is increasingly recognized as very sensitive indicator of protein conformation,58, 59 relying on a plethora of electronic transitions. The FUV‐ECD spectra of Trp‐cage proteins (e.g., Exenatide, E19, E19_SS) are typically the weighted sums of the C‐ (folded and highly helical) and U‐type (unfolded) base curves (Figure 2 A), as assigned and verified by means of NMR spectroscopy.60, 61 As the temperature increases, the shape of the FUV‐ECD spectra changes: those of the parent proteins—E2, E5, E11, and E19—acquire more and more U‐type characteristics, as they unfold gradually. The temperature‐dependent FUV‐ECD spectra for all four SS bond enforced model peptides were recorded between 5 and 85 °C (in steps of 5 °C, resulting in 17 spectra for each protein; Figure S1 in the Supporting Information). Aside from E2_SS, the SS‐bond‐containing mutants have similar FUV‐ECD spectra to that of their parent proteins at low temperatures. On the other hand, because the SS bond makes the 3D folds of SS variants more rigid, they preserve their C‐type characteristics better and delay unfolding, even at higher temperatures. Once the SS bond is reduced (see below for details), the spectral properties of the SH variants revert to those of the parent proteins. Their 3D‐scaffold compactness decreases as the temperature increases; this is less apparent in the case of E2 and E2_2SH because they both already present an ensemble of dynamic backbone structures at 5 °C.
Ensemble deconvolution62, 63 of the 204 (12×17) ECD spectra, f(λ, T), made the quantitative analysis of the relative abundance of secondary structural elements belonging to each peptide in each state possible because the pure ECD curves were successfully assigned.60, 64, 65, 66 The results in Figure 2 B indicate that 1) the SS bond stabilizes the less folded protein scaffolds more effectively, for example, whereas the difference at 4 °C between the E2 and E2_SS folded fraction is 48 %, the same difference between E5 and E5_SS is 14 %; in the case of E11 and E11_SS, it is only 28 %, and for E19 and E19_SS it is 7 % (Figure 2 D). 2) The ratio of the folded, helical components increases upon going from E2 to E5 and E11; however, the compact α‐helical content of E19_SS, E19_2SH, and E19 is lower than those of E11_SS, E11_2SH, and E11 because the unfolded eight‐residue‐long N‐terminal part elevates the overall backbone dynamics, which destabilizes the compact 3D fold. 3) All four reduced proteins (E2_2SH, E5_2SH, E11_2SH, E19_2SH) have a higher helix content (≈7–15 %) than that of the parent proteins over the entire temperature range. 4) The 3D folds stabilized by SS bonds are less sensitive to temperature (Figure 2 C, D).
ECD: FUV‐ECD spectra were recorded on a Jasco J810 spectrophotometer by using a 1.0 mm path length cuvette with protein concentrations of 20–30 μM. Data accumulation was performed over a range of 185–260 nm, with 0.2 nm step resolution at a scan rate of 50 nm min^−1 with a 1 nm bandwidth. The spectral accumulations were resolved between 5 and 85 °C in steps of 5 °C. The temperature was controlled by using a Peltier‐type heating system. Each spectrum baseline was processed by subtracting the solvent spectrum from that of the protein and the raw ellipticity data were converted into mean residue molar ellipticity units, [Θ]MR.

TCEP: Elapsed time to steady state [1]	TCEP: Conversion rate [1] [%]	TCEP: t1/2 of reduction [1] [min]	Degree of the fold by FUV-ECD [2] [%]	difference in folded fraction between SS variant and parent [2] [%]	Compound	TCEP: k1 [1] [M⁻¹ s⁻¹]
≈1 h	93	14	63.4	14	CC[C@H](C)[C@@H]1NC(=O)[C@H](Cc2ccc(O)cc2)NC(=O)[C@H](CC(C)C)NC(=O)[C@H](CCCNC(=N)N)NC(=O)[C@H](C(C)C)NC(=O)[C@@H](NC(=O)[C@H](CCC(=O)O)NC(=O)[C@H](CCC(=O)O)NC(=O)[C@@H](N)CCC(=O)O)CSSC[C@@H](C(=O)O)NC(=O)[C@@H]2CCCN2C(=O)[C@@H]2CCCN2C(=O)[C@@H]2CCCN2C(=O)[C@H](CCCNC(=N)N)NC(=O)CNC(=O)[C@H](CO)NC(=O)[C@H](CO)NC(=O)[C@@H]2CCCN2C(=O)CNC(=O)CNC(=O)[C@H](CC(=O)O)NC(=O)[C@H](CCCCN)NC(=O)[C@H](CC(C)C)NC(=O)[C@H](Cc2c[nH]c3ccccc23)NC(=O)[C@H](CCC(N)=O)NC1=O [E5_SS] (H-EEECVRLYIQWLKDGGPSSGRPPPC-OH; disulfide 4-25)	0.308
<5 min	100	–	51.8	48	CC[C@H](C)[C@@H]1NC(=O)[C@H](Cc2ccc(O)cc2)NC(=O)[C@H](CC(C)C)NC(=O)[C@H](CCCNC(=N)N)NC(=O)[C@H](C(C)C)NC(=O)[C@@H](N)CSSC[C@@H](C(=O)O)NC(=O)[C@@H]2CCCN2C(=O)[C@@H]2CCCN2C(=O)[C@@H]2CCCN2C(=O)[C@H](CCCNC(=N)N)NC(=O)CNC(=O)[C@H](CO)NC(=O)[C@H](CO)NC(=O)[C@@H]2CCCN2C(=O)CNC(=O)CNC(=O)[C@H](CC(=O)O)NC(=O)[C@H](CCCCN)NC(=O)[C@H](CC(C)C)NC(=O)[C@H](Cc2c[nH]c3ccccc23)NC(=O)[C@H](CCC(N)=O)NC1=O [E2_SS] (H-CVRLYIQWLKDGGPSSGRPPPC-OH; disulfide 1-22)	–
≈5–6 h	94	67	96.0	28	CC[C@H](C)[C@@H]1NC(=O)[C@H](Cc2ccc(O)cc2)NC(=O)[C@H](CC(C)C)NC(=O)[C@H](CCCNC(=N)N)NC(=O)[C@H](C(C)C)NC(=O)[C@@H](NC(=O)[C@H](CCC(=O)O)NC(=O)[C@H](CCC(=O)O)NC(=O)[C@H](CCC(=O)O)NC(=O)[C@H](CCSC)NC(=O)[C@H](CCC(N)=O)NC(=O)[C@H](CCCCN)NC(=O)[C@H](CO)NC(=O)[C@H](CC(C)C)NC(=O)[C@@H](N)CC(=O)O)CSSC[C@@H](C(=O)O)NC(=O)[C@@H]2CCCN2C(=O)[C@@H]2CCCN2C(=O)[C@@H]2CCCN2C(=O)[C@H](CCCNC(=N)N)NC(=O)CNC(=O)[C@H](CO)NC(=O)[C@H](CO)NC(=O)[C@@H]2CCCN2C(=O)CNC(=O)CNC(=O)[C@H](CC(=O)O)NC(=O)[C@H](CCCCN)NC(=O)[C@H](CC(C)C)NC(=O)[C@H](Cc2c[nH]c3ccccc23)NC(=O)[C@H](CCC(N)=O)NC1=O [E11_SS] (H-DLSKQMEEECVRLYIQWLKDGGPSSGRPPPC-OH; disulfide 10-31)	0.0613
